Here are results for 37 compounds from US7396842B2, “Five-membered cyclic compounds” (Dianippon Sumitomo Pharma Co., Ltd., priority 2002, dated 2008).

Structures are written as SMILES.

In one experiment the target is T1, SMBS on rat lung membranes (Rattus norvegicus, UniProt A0A8I6A822).
T1 construct: from tissue; host or cells: rat lung membranes (SD male rats)
T1 sequence (A0A8I6A822 27-587): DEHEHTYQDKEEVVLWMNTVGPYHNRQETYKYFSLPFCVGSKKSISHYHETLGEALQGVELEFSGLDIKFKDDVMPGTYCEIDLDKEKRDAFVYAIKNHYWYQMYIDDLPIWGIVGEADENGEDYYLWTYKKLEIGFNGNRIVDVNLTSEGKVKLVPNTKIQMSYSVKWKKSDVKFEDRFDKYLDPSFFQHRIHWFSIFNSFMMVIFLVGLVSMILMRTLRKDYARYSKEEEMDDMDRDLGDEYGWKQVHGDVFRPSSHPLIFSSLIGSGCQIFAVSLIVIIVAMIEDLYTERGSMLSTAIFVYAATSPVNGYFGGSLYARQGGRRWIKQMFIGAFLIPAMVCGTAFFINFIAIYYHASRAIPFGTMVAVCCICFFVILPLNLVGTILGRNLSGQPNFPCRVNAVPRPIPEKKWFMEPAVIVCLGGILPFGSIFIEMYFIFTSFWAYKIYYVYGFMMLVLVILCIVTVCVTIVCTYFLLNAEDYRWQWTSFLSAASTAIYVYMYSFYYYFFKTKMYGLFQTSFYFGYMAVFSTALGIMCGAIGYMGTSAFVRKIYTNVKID
Kind of experiment: Receptor binding of the compound in rat lung membranes ([125I]-iodo-cyanopindolol ligand binding assay; Experiments 1 and 4). The conditions noted are these: Table 37; compound concentration 30 μM; [125I]-iodo-cyanopindolol, rat lung membranes; Experiment 1; read-out: Binding Activity (30 μM). The method, then:
Evaluation Test on Receptor Binding of the Compound in Rat Lung Membranes:
This experiment was carried out according to the method disclosed in Sugasawa et al., (Sugasawa, T. et al., J. Biol. Chem., 272, 21244-21252(1997)).
Preparation of Rat Lung Membranes
The air tube and blood vessels were removed from the lung excised from SD male rats (7-weeks old when used, purchased from Charles River Japan, Inc.), and the lung was chopped, and washed with ice-cold tris-saline buffer (10 mM Tris-HCl, 154 mM sodium chloride, pH 7.4). The lung was homogenized by PHYSCOTRON (maximum speed: 1 minute) in a buffer for homogenization (tris-saline buffer containing 1 mM ethylenediaminetetraacetate (EDTA), 1 mM 4-(2-aminoethyl)-benzenesulfonyl fluoride (AEBSF), 5 μg/ml aprotinin, 5 μg/ml leupeptin) under ice-cooling. The mixture was centrifuged at a low speed (1500×g, 20 minutes, 4° C.), and the supernatant was super-centrifuged (100000×g, 20 minutes, 4° C.). The pellets thus obtained were suspended in tris-saline buffer, and kept at −80° C. The concentration of protein was measured by a Protein Assay Kit manufactured by Bio-Rad using bovine serum albumin (BSA) as standard.
To each well of a protein-non-adsorbent round-bottom 96-well assay plate (purchased from IWAKI GLASS CO., LTD.) was added tris-saline buffer (200 μl) containing 1 nM [^125I]-iodo-cyanopindolol (purchased from Amarsham), 10 μM serotonin, 20 μM dl-propranol, 10 μM phentoramine, 1.1 mM ascorbic acid and 100 μg lung membranes, and the mixture was mixed well by pipetting, and the plate was incubated at 37° C. for 30 minutes. Test compounds were dissolved in 100% dimethylsulfoxide, and added to the plate in an amount of 2 μl (final concentration of DMSO: 1%). In order to obtain non-specific binding, L-threo-3-(3,4-dihydroxyphenyl)-N-[3-(4-fluorophenyl)propyl]-serinepyrrolidinamide was added at a final concentration of 100 μM instead of test compound. During this period, 0.3% polyethyleneimine (PEI)/tris-saline buffer (100 μl) was added to a multiscreen plate (96-well B-glassfiber, milipore Cat. No. MAFB NOB10) and the plate was incubated for more than 30 minutes. The plate was washed by vacuum filtration (by adding ice-cold tris-saline buffer (200 μl) and then vacuum filtration), and the reaction solution on the 96-well assay plate was washed by vacuum filtration onto the multiscreen plate for four times. The B-glassfiber paper filter at the bottom of the multiscreen plate was punched out, and the γ-ray amount of [^125I]-iodo-cyanopindolol being trapped onto the paper filter was measured as binding amount. The binding amount in the presence of DMSO (final concentration: 1%) was regarded as total binding, and the binding in the presence of L-threo-3-(3,4-dihydroxyphenyl) -N-[3-(4-fluorophenyl)-propyl]serinepyrrolidinamide was regarded as non-specific binding. The value which is calculated by subtracting non-specific binding from total binding is specific binding. The binding activity of the compound can be calculated by the following equation, and expressed in a ratio of inhibiting the specific binding of [^125I]-iodo-cyanopindorol to SMBS on rat lung membranes.
In the same manner to in Experiment 1, the receptor binding assay was carried out on the present compounds by using the rat lung membranes.
For the compound `COc1ccc(-c2csc(=Nc3ccccc3)n2CCCN)cc1` [Example 9, N-[3-(3-Aminopropyl)-4-(4-methoxyphenyl)-thiazol-2(3H) -ylidene]aniline], the inhibition at 30 µM came to 79%.

`NCCCn1c(-c2ccc(-c3ccccc3)cc2)csc1=Nc1ccccc1` [Example 11, N-[3-(3-Aminopropyl)-4-(1,1′-biphenyl-4-yl)thiazol-2(3H)-ylidene]aniline]: the inhibition at 30 µM amounted to 98.1%.

The experiment is the same for the next values; noted with them: Table 39; compound concentration 30 μM; [125I]-iodo-cyanopindolol, rat lung membranes; Experiment 1; read-out: Binding Activity (30 μM).
In the case of `O=C(CO)NCCCn1c(-c2ccc(Br)cc2)csc1=Nc1ccccc1` [Example 169, N-{3-[4-(4-Bromophenyl)-2-(phenylimino)-thiazol-3(2H)-yl]propyl}-2-hydroxyacetamide], the inhibition at 30 µM was found to be 58.6%.

Regarding `CNCCCn1c(-c2ccc(OC)cc2)csc1=Nc1ccccc1` [Example 152, N-{4-(4-Methoxyphenyl)-3-[3-(methylamino)propyl]thiazol-2(3H)-ylidene}aniline], the inhibition at 30 µM worked out at 76.5%.

In the case of `NCCCn1c(-c2ccc(C(=O)O)cc2)csc1=Nc1ccccc1` [Example 185, 4-[3-(3-Aminopropyl)-2-(phenylimino)-2,3-dihydrothiazol-4-yl]-benzoic acid], the inhibition at 30 µM amounted to 13.9%.

The experiment is the same for the next values; noted with them: Table 42; concentration tested 30 μM; rat lung membranes; Experiment 4; read-out: Binding Activity (30 μM).
Regarding `CN(C)CC(=O)NCCCn1c(-c2ccc(N3CCOCC3)cc2)cs/c1=N\c1ccc(F)cc1` [Example 245], the inhibition at 30 µM was found to be 96%.

Turning to `CCCCCCNC(=O)NCCCn1c(-c2ccc(N3CCOCC3)cc2)cs/c1=N\c1ccc(F)cc1` [Example 284], the inhibition at 30 µM stood at 77%.

For `CCCCNC(=O)NCCCn1c(-c2ccc(N3CCOCC3)cc2)csc1=Nc1ccc(F)cc1` [Example 221, N-butyl-N′-{3-[2-[(4-fluorophenyl)imino]-4-[4-(morpholino)phenyl]-thiazol-3(2H)-yl]propyl}urea], the inhibition at 30 µM stood at 79%.

On to `CCOC(=O)NCCCn1c(-c2ccc(N3CCOCC3)cc2)cs/c1=N\c1ccc(F)cc1` [Example 250], for which the inhibition at 30 µM amounted to 98%.

As for `CCNC(=O)NCCCn1c(-c2ccc(N3CCOCC3)cc2)cs/c1=N\c1ncccn1` [Example 297], the inhibition at 30 µM is 75%.

For `O=C(NCCCn1c(-c2ccc(N3CCOCC3)cc2)cs/c1=N\c1ccc(F)cc1)NC1CCCCC1` [Example 285], the inhibition at 30 µM amounted to 35%.

For `CCNC(=O)NCCCn1c(-c2ccc(N3CCOCC3)cc2)cs/c1=N\c1ccc(OC)cn1` [Example 298], the inhibition at 30 µM stood at 101%.

With `CCNC(=O)NCCn1c(-c2ccc(N3CCOCC3)cc2)cs/c1=N\c1ccc(F)cc1` [Example 280], the inhibition at 30 µM came to 99%.

Consider `CCS(=O)(=O)NCCCn1c(-c2ccc(N3CCOCC3)cc2)cs/c1=N\c1ccc(F)cc1` [Example 251], for which the inhibition at 30 µM came to 61%.

As to `O=C(COc1ccccc1)NCCCn1c(-c2ccc(N3CCOCC3)cc2)cs/c1=N\c1ccc(F)cc1` [Example 246], the inhibition at 30 µM came to 80%.

The experiment is the same for the next values; noted with them: Table 43; concentration tested 30 μM; rat lung membranes; Experiment 4; read-out: Binding Activity (30 μM).
Regarding `CCNC(=O)CNCCCn1c(-c2ccc(N3CCOCC3)cc2)csc1=Nc1ccc(F)cc1` [Example 335, N^1-ethyl-N^2-{3-[2-[(4-fluorophenyl)imino]-4-[4-(morpholino)phenyl]-thiazol-3(2H)-yl]propyl}glycinamide], the inhibition at 30 µM came to 101%.

For the compound `O=C(CN1CCCC1)NCCCn1c(-c2ccc(OC(F)(F)F)cc2)cs/c1=N\Cc1ccc(Cl)cc1` [Example 384, N-{3-[2-[(4-Chlorobenzyl)imino]-4-[4-(trifluoromethoxy)phenyl]-1,3-thiazol-3(2H)-yl]propyl}-2-(1-pyrrolidinyl)acetamide], the inhibition at 30 µM turned out to be 107%.

Regarding `COCCNC(=O)NCCCn1c(-c2ccc(N3CCOCC3)cc2)cs/c1=N\c1ccc(F)cc1` [Example 355], the inhibition at 30 µM is 89%.

As for `COCCNC(=O)NCCCn1c(-c2ccc(OC(F)(F)F)cc2)cs/c1=N\Cc1ccc(Cl)cc1` [Example 409, N-{3-[2-[(4-Chlorobenzyl)imino]-4-[4-(trifluoromethoxy)phenyl]-1,3-thiazol-3(2H)-yl]propyl}-N′-(2-methoxyethyl)urea], the inhibition at 30 µM came to 89%.

On to `CCNC(=O)CNCCCn1c(-c2ccc(OC(F)(F)F)cc2)cs/c1=N\Cc1ccc(Cl)cc1` [Example 417, N^2-{3-[2-[(4-Chlorobenzyl)imino]-4-[4-(trifluoromethoxy)phenyl]-1,3-thiazol-3(2H)-yl]propyl}-N^1-ethylglycinamide], for which the inhibition at 30 µM was found to be 113%.

As to `COc1ccc(C/N=c2\scc(-c3ccc(OC(F)(F)F)cc3)n2CCCN)c(OC)c1` [Example 362, 3-[2-[(2,4-Dimethoxybenzyl)imino]-4-[4-(trifluoromethoxy)phenyl]-1,3-thiazol-3(2H)-yl]-1-propanamine], the inhibition at 30 µM turned out to be 117%.

Take `CN(C)C(=O)CNCCCn1c(-c2ccc(N3CCOCC3)cc2)cs/c1=N\c1ccc(F)cc1` [Example 342]: the inhibition at 30 µM is 56%.

As to `COc1ccc(C/N=c2\scc(-c3ccc(OC(F)(F)F)cc3)n2CCCNC(C)=O)c(OC)c1` [Example 373, N-{3-[2-[(2,4-dimethoxybenzyl)imino]-4-[4-(trifluoromethoxy)phenyl]-1,3-thiazol-3(2H)-yl]propyl}acetamide], the inhibition at 30 µM was 90%.

For the compound `CCN(CC)C(=O)CNCCCn1c(-c2ccc(N3CCOCC3)cc2)cs/c1=N\c1ccc(F)cc1` [Example 343], the inhibition at 30 µM came out at 107%.

`O=C(CN1CCCC1)NCCCn1c(-c2ccc(N3CCOCC3)cc2)csc1=Nc1ccc(F)cc1` [Example 357, N-{3-[2-[(4-Fluorophenyl)imino]-4-[4-(morpholino)phenyl]thiazol-3(2H)-yl]propyl}-2-(1-pyrrolidinyl)acetamide]: the inhibition at 30 µM amounted to 86%.

For the compound `CCNC(=O)NCCCn1c(CN(C)Cc2ccc(Cl)cc2)cs/c1=N\c1ccc(OC(F)(F)F)cc1` [Example 303], the inhibition at 30 µM was found to be 23%.

Staying with this experiment, now noted: Table 44; concentration tested 30 μM; rat lung membranes; Experiment 4; read-out: Binding Activity (30 μM).
For the compound `CCOC(=O)NCCCn1c(-c2ccc(OC(F)(F)F)cc2)cs/c1=N\Cc1ccc(Cl)cc1` [Example 368], the inhibition at 30 µM came to 100%.

As for `CC(=O)NCCCn1c(-c2ccc(OC(F)(F)F)cc2)cs/c1=N\C(=O)c1ccncc1` [Example 452], the inhibition at 30 µM turned out to be 84%.

For `COc1cc(Cl)ccc1C/N=c1\scc(-c2ccc(F)cc2)n1CCCNC(=N)N` [Example 429, N′-{3-[2-[(4-Chloro-2-methoxybenzyl)imino]-4-(4-fluorophenyl)-1,3-thiazol-3(2H)-yl]propyl}guanidine], the inhibition at 30 µM amounted to 103%.

For `NCCCn1c(-c2ccc(OC(F)(F)F)cc2)cs/c1=N\C(=O)c1ccco1` [Example 441], the inhibition at 30 µM was found to be 61%.

On to `COc1ccc(C(=O)/N=c2\scc(-c3ccc(OC(F)(F)F)cc3)n2CCCN)c(OC)c1` [Example 437], for which the inhibition at 30 µM was found to be 106%.

As to `COc1ccc(C/N=c2\scc(-c3ccc(OC(F)(F)F)cc3)n2CCCNCC(F)(F)F)c(OC)c1` [Example 413], the inhibition at 30 µM worked out at 96%.

For `CN(C)C(=O)NCCCn1c(-c2ccc(OC(F)(F)F)cc2)cs/c1=N\Cc1ccc(Cl)cc1` [Example 404], the inhibition at 30 µM came out at 109%.

The experiment is the same for the next values; noted with them: ratio of inhibiting the specific binding of [125I]-iodo-cyanopindolol; test concentration 30 μM; rat lung membranes; read-out: Binding Activity (30 μM).
With `CCNC(=S)NCCCn1c(-c2ccc(OC(F)(F)F)cc2)cs/c1=N\C(=O)c1ccc(OC)cc1OC` [Example 494], the inhibition at 30 µM came to 65%.

With `COc1ccc(C(=O)/N=c2\scc(C(=O)NCc3ccc(Cl)cc3)n2CCCNC(C)=O)c(OC)c1` [Example 463], the inhibition at 30 µM worked out at 10%.

On to `CCS(=O)(=O)NCCCn1c(-c2ccc(OC(F)(F)F)cc2)cs/c1=N\C(=O)c1ccc(OC)cc1OC` [Example 536], for which the inhibition at 30 µM worked out at 67%.

As to `COc1ccc(C(=O)/N=c2\scc(-c3ccc(OC(F)(F)F)cc3)n2CCCNC(=N)N)c(OC)c1` [Example 534], the inhibition at 30 µM stood at 87%.
